Reference: the NIST ThermoML archive (doi:10.1021/je050389b)

Assay: xn = mol fraction of the nth substance listed
Conditions: Liquid; for viscosity: 100.5 kPa; for mass density: 101 kPa

CCCCCC(=O)OCC [ethyl hexanoate] + CCO
Conditions | mass density, 288.15 K [kg/m3] | mass density, 298.15 K [kg/m3] | mass density, 308.15 K [kg/m3] | mass density, 318.15 K [kg/m3] | viscosity, 288.15 K [mPa·s] | viscosity, 298.15 K [mPa·s] | viscosity, 308.15 K [mPa·s] | viscosity, 318.15 K [mPa·s]
x1 = 0.05 | 804.18 | 795.44 | 786.59 | 777.58 | 1.241 | 1.031 | 0.866 | 0.732
x1 = 0.1 | 812.99 | 804.11 | 795.12 | 785.96 | 1.182 | 0.982 | 0.829 | 0.71
x1 = 0.15 | 820.54 | 811.53 | 802.42 | 793.14 | 1.139 | 0.948 | 0.806 | 0.691
x1 = 0.2 | 827.14 | 818.05 | 808.85 | 799.48 | 1.106 | 0.926 | 0.789 | 0.676
x1 = 0.25 | 832.89 | 823.72 | 814.44 | 805.01 | 1.082 | 0.909 | 0.777 | 0.667
x1 = 0.3 | 837.94 | 828.72 | 819.38 | 809.89 | 1.062 | 0.897 | 0.769 | 0.662
x1 = 0.35 | 842.47 | 833.2 | 823.82 | 814.29 | 1.051 | 0.889 | 0.763 | 0.659
x1 = 0.4 | 846.5 | 837.18 | 827.76 | 818.2 | 1.045 | 0.883 | 0.759 | 0.657
x1 = 0.45 | 850.15 | 840.82 | 831.37 | 821.8 | 1.039 | 0.88 | 0.758 | 0.657
x1 = 0.5 | 853.47 | 844.11 | 834.63 | 825.05 | 1.037 | 0.88 | 0.759 | 0.658
x1 = 0.55 | 856.51 | 847.12 | 837.64 | 828.05 | 1.038 | 0.882 | 0.761 | 0.662
x1 = 0.6 | 859.28 | 849.88 | 840.39 | 830.79 | 1.039 | 0.888 | 0.765 | 0.665
x1 = 0.65 | 861.84 | 852.43 | 842.94 | 833.34 | 1.045 | 0.892 | 0.767 | 0.668
x1 = 0.7 | 864.22 | 854.82 | 845.33 | 835.75 | 1.048 | 0.896 | 0.773 | 0.674
x1 = 0.75 | 866.43 | 857.02 | 847.54 | 837.97 | 1.054 | 0.902 | 0.779 | 0.68
x1 = 0.8 | 868.48 | 859.09 | 849.63 | 840.08 | 1.064 | 0.91 | 0.786 | 0.686
x1 = 0.85 | 870.41 | 861.04 | 851.59 | 842.07 | 1.073 | 0.919 | 0.794 | 0.694
x1 = 0.9 | 872.22 | 862.86 | 853.45 | 843.97 | 1.086 | 0.929 | 0.803 | 0.703
x1 = 0.95 | 873.99 | 864.66 | 855.27 | 845.83 | 1.1 | 0.94 | 0.815 | 0.712
x1 = 1 | 875.64 | 866.29 | 856.91 | 847.5 | 1.102 | 0.94 | 0.814 | 0.711
